Measurements reported in ChEMBL document CHEMBL3351875, “Synthesis of Deuterated Benzopyran Derivatives as Selective COX-2 Inhibitors with Improved Pharmacokinetic Properties” (ACS Med Chem Lett, 2014).

Experiments:
[1] = Cmax in Sprague-Dawley rat at 5 mg/kg, iv measured during 1 to 24 hrs by LC-MS method; type: ADME, organism-based; parameters: dose 5 mg/kg, route intravenous; conditions: in vivo
[2] = tested on: Rattus norvegicus; assay: Volume of distribution in Sprague-Dawley rat at 10 mg/kg, po measured during 1 to 24 hrs by LC-MS method; type: ADME, organism-based; parameters: dose 10 mg/kg, route oral; conditions: in vivo
[3] = biological target: T1, Prostaglandin G/H synthase 2 (Homo sapiens, UniProt P35354); assay: Inhibition of human recombinant COX2 pre-incubated for 15 mins before fluorometric substrate addition by fluorescence based assay
T1 sequence (P35354 whole entry): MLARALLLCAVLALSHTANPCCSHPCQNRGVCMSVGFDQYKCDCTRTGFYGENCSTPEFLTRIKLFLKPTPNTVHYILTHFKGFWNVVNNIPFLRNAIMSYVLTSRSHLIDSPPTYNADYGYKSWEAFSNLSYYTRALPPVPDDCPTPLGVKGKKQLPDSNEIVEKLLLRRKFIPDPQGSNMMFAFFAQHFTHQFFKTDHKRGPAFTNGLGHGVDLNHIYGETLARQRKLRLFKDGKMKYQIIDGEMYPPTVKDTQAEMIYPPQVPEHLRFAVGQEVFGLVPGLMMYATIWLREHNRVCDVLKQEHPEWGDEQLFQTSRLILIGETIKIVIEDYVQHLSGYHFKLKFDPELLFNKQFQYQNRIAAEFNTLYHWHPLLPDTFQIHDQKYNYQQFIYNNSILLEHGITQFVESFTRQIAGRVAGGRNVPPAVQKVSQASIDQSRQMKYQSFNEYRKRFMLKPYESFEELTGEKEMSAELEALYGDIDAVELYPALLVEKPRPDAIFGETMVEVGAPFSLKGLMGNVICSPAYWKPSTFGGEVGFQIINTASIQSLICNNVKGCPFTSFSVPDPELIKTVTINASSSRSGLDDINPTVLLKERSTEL

[4] = tested on: Rattus norvegicus; assay: Antiinflammatory activity in orally dosed Sprague-Dawley rat model of carrageenan-induced foot paw edema assessed as reduction in edema by plethysmometry; type: functional, organism-based
[5] = Apparent oral clearance in Sprague-Dawley rat at 5 mg/kg, iv measured during 1 to 24 hrs by LC-MS method; type: ADME, organism-based; parameters: dose 5 mg/kg, route oral; conditions: in vivo
[6] = (§1) Apparent oral clearance in Sprague-Dawley rat at 10 mg/kg, po measured during 1 to 24 hrs by LC-MS method; type: ADME, organism-based; parameters: dose 10 mg/kg, route oral; conditions: Sprague-Dawley, in vivo
[7] = tested on: Rattus norvegicus; assay: Half life in Sprague-Dawley rat at 5 mg/kg, iv measured during 1 to 24 hrs by LC-MS method; type: ADME, organism-based; parameters: dose 5 mg/kg, route intravenous; conditions: in vivo
[8] = tested on: Rattus norvegicus; assay: Antiinflammatory activity in orally dosed Sprague-Dawley rat model of carrageenan-induced air pouch inflammation assessed as reduction in PGE2 level by ELISA method; type: functional, organism-based
[9] = (§2) AUC (0 to infinity) in Sprague-Dawley rat at 10 mg/kg, po measured during 1 to 24 hrs by LC-MS method; type: ADME, organism-based, Plasma; parameters: time infinity, dose 10 mg/kg, route oral; conditions: Sprague-Dawley, plasma
[10] = Volume of distribution in Sprague-Dawley rat at 5 mg/kg, iv measured during 1 to 24 hrs by LC-MS method; type: ADME, organism-based; parameters: dose 5 mg/kg, route intravenous; conditions: in vivo
[11] = (§3) Oral bioavailability in Sprague-Dawley rat at 10 mg/kg measured during 1 to 24 hrs by LC-MS method; type: ADME, organism-based; conditions: Sprague-Dawley, in vivo
[12] = tested on: Rattus norvegicus; assay: Antinociceptive activity in orally dosed Sprague-Dawley rat model of carrageenan-induced foot paw hyperalgesia assessed as paw withdrawal latency; type: functional, organism-based
[13] = AUC (0 to infinity) in Sprague-Dawley rat at 5 mg/kg, iv measured during 1 to 24 hrs by LC-MS method; type: ADME, organism-based, Plasma; parameters: time infinity, dose 5 mg/kg, route intravenous; conditions: Sprague-Dawley, plasma
[14] = biological target: Prostaglandin G/H synthase 1 (Homo sapiens, UniProt P23219); assay: Inhibition of human recombinant COX1 pre-incubated for 15 mins before fluorometric substrate addition by fluorescence based assay
Chain of Prostaglandin G/H synthase 1 (P23219 whole entry): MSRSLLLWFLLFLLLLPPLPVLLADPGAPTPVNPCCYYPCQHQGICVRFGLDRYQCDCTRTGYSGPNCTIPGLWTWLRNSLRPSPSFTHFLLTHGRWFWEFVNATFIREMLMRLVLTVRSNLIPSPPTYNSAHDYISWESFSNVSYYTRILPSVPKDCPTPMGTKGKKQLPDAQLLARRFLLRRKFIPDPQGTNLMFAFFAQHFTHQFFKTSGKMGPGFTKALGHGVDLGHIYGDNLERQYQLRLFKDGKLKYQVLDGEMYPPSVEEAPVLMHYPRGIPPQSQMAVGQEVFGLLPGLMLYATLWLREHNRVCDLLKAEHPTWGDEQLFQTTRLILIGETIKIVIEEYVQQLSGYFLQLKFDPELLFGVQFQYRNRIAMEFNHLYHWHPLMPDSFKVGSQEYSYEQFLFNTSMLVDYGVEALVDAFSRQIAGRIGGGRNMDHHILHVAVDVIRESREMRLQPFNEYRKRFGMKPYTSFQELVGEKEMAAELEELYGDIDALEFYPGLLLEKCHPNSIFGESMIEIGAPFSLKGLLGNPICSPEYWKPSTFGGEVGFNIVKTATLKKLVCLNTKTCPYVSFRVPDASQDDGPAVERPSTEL

[15] = tested on: Rattus norvegicus; assay: Apparent oral clearance in Sprague-Dawley rat at 2.5 mg/kg, po measured during 1 to 24 hrs by LC-MS method; type: ADME, organism-based; parameters: dose 2.5 mg/kg, route oral; conditions: in vivo
[16] = tested on: Rattus norvegicus; assay: AUC (0 to infinity) in Sprague-Dawley rat at 2.5 mg/kg, po measured during 1 to 24 hrs by LC-MS method; type: ADME, organism-based, Plasma; parameters: dose 2.5 mg/kg, route oral, time infinity; conditions: in vivo
[17] = Volume of distribution in Sprague-Dawley rat at 1 mg/kg, iv measured during 1 to 24 hrs by LC-MS method; type: ADME, organism-based; parameters: dose 1 mg/kg, route intravenous; conditions: in vivo
[18] = Cmax in Sprague-Dawley rat at 1 mg/kg, iv measured during 1 to 24 hrs by LC-MS method; type: ADME, organism-based; parameters: dose 1 mg/kg, route intravenous; conditions: in vivo
[19] = tested on: Rattus norvegicus; assay: AUC (0 to infinity) in Sprague-Dawley rat at 1 mg/kg, iv measured during 1 to 24 hrs by LC-MS method; type: ADME, organism-based, Plasma; parameters: time infinity, dose 1 mg/kg, route intravenous; conditions: in vivo
[20] = tested on: Rattus norvegicus; assay: Oral bioavailability in Sprague-Dawley rat at 2.5 mg/kg measured during 1 to 24 hrs by LC-MS method; type: ADME, organism-based; conditions: in vivo
[21] = tested on: Rattus norvegicus; assay: Half life in Sprague-Dawley rat at 1 mg/kg, iv measured during 1 to 24 hrs by LC-MS method; type: ADME, organism-based; parameters: dose 1 mg/kg, route intravenous; conditions: in vivo
[22] = Apparent oral clearance in Sprague-Dawley rat at 1 mg/kg, iv measured during 1 to 24 hrs by LC-MS method; type: ADME, organism-based; parameters: dose 1 mg/kg, route oral; conditions: in vivo
[23] = Tmax in Sprague-Dawley rat at 25 mg/kg, po measured during 1 to 24 hrs by LC-MS method; type: ADME, organism-based; parameters: dose 25 mg/kg, route oral; conditions: in vivo
[24] = Half life in Sprague-Dawley rat at 25 mg/kg, po measured during 1 to 24 hrs by LC-MS method; type: ADME, organism-based; parameters: dose 25 mg/kg, route oral; conditions: in vivo
[25] = Cmax in Sprague-Dawley rat at 25 mg/kg, po measured during 1 to 24 hrs by LC-MS method; type: ADME, organism-based; parameters: dose 25 mg/kg, route oral; conditions: in vivo
[26] = Oral bioavailability in Sprague-Dawley rat at 25 mg/kg measured during 1 to 24 hrs by LC-MS method; type: ADME, organism-based; conditions: in vivo
[27] = AUC (0 to infinity) in Sprague-Dawley rat at 25 mg/kg, po measured during 1 to 24 hrs by LC-MS method; type: ADME, organism-based; parameters: time infinity, dose 25 mg/kg, route oral; conditions: plasma
[28] = Apparent oral clearance in Sprague-Dawley rat at 25 mg/kg, po measured during 1 to 24 hrs by LC-MS method; type: ADME, organism-based; parameters: dose 25 mg/kg, route oral; conditions: in vivo
[29] = tested on: Rattus norvegicus; assay: Volume of distribution in Sprague-Dawley rat at 25 mg/kg, po measured during 1 to 24 hrs by LC-MS method; type: ADME, organism-based; parameters: dose 25 mg/kg, route oral; conditions: in vivo
[30] = tested on: Rattus norvegicus; assay: Tmax in Sprague-Dawley rat at 10 mg/kg, po measured during 1 to 24 hrs by LC-MS method; type: ADME, organism-based; parameters: dose 10 mg/kg, route oral; conditions: in vivo
[31] = Cmax in Sprague-Dawley rat at 10 mg/kg, po measured during 1 to 24 hrs by LC-MS method; type: ADME, organism-based; parameters: dose 10 mg/kg, route oral; conditions: in vivo
[32] = tested on: Rattus norvegicus; assay: as §1; type: ADME, organism-based; parameters: dose 10 mg/kg, route oral; conditions: in vivo
[33] = tested on: Rattus norvegicus; assay: as §2; type: ADME, organism-based, Plasma; parameters: time infinity, dose 10 mg/kg, route oral; conditions: in vivo
[34] = tested on: Rattus norvegicus; assay: Half life in Sprague-Dawley rat at 10 mg/kg, po measured during 1 to 24 hrs by LC-MS method; type: ADME, organism-based; parameters: dose 10 mg/kg, route oral; conditions: in vivo
[35] = tested on: Rattus norvegicus; assay: as §3; type: ADME, organism-based; conditions: in vivo

Row | Compound | Cmax [1] [ng/mL] | Vd [2] [L/kg] | EC50 [4] [mg/kg] | CL/F [5] [mL/min/kg] | t1/2 [7] [h] | EC50 [8] [mg/kg] | Vd [10] [L/kg] | EC50 [12] [mg/kg] | AUC(0-inf) [13] [ng·h/mL] | IC50 [14] [nM] | Vd [17] [L/kg] | Cmax [18] [ng/mL] | AUC [19] [ng·h/mL] | t1/2 [21] [h] | CL/F [22] [mL/min/kg] | IC50 [3] [nM] | also measured
1 | [2H]C([2H])([2H])c1cc2c(c(C([2H])([2H])[2H])c1Br)C=C(C(=O)O)C(C(F)(F)F)O2 (stereo not drawn) | 26200 | 0.57 | 2.26 | 2.25 | 2.733 | 0.57 | 0.529 | 3.82 | 37900 | – | – | – | – | – | – | 43 | CL/F [6]: 2.08 mL/min/kg; AUC(0-inf) [9]: 84800 ng·h/mL; bioavailability [11]: 112%
2 | Cc1c(Br)c(C)c2c(c1Br)OC(C(F)(F)F)C(C(=O)O)=C2 (stereo not drawn) | – | – | – | – | – | – | – | – | – | > 100000 | – | – | – | – | – | 69 | –

More lines, main results first:

Row | Cmax [1] [ng/mL] | Vd [2] [L/kg] | EC50 [4] [mg/kg] | CL/F [5] [mL/min/kg] | t1/2 [7] [h] | EC50 [8] [mg/kg] | Vd [10] [L/kg] | EC50 [12] [mg/kg] | AUC(0-inf) [13] [ng·h/mL] | IC50 [14] [nM] | Vd [17] [L/kg] | Cmax [18] [ng/mL] | AUC [19] [ng·h/mL] | t1/2 [21] [h] | CL/F [22] [mL/min/kg] | Compound | IC50 [3] [nM] | also measured
3 | – | – | 6.48 | – | – | 0.45 | – | 3.33 | – | – | 0.404 | 9070 | 14043.753 | 3.909 | 1.2 | [2H]C([2H])([2H])c1cc(Cl)cc2c1OC(C(F)(F)F)C(C(=O)O)=C2 (stereo not drawn) | – | CL/F [15]: 1.1 mL/min/kg; AUC [16]: 38900 µg/L.hr; F [20]: 110.7%
4 | 37200 | – | – | 0.633 | 5.446 | – | 0.301 | – | 131000 | > 100000 | – | – | – | – | – | CCc1cc(OC(F)(F)F)cc2c1OC(C(F)(F)F)C(C(=O)O)=C2 (stereo not drawn) | – | Tmax [23]: 1.62 h; half-life [24]: 9.54 h; Cmax [25]: 29500 ng/mL; bioavailability [26]: 78.6%; AUC(0-inf) [27]: 511000 ng·h/mL; CL/F [28]: 0.817 mL/min/kg; Vd [29]: 0.678 L/kg
5 | – | 1.25 | – | – | – | 0.77 | – | – | – | > 100000 | 0.45 | 5040 | 4898.988 | 1.5 | 3.45 | Cc1cc2c(c(C)c1Cl)C=C(C(=O)O)C(C(F)(F)F)O2 (stereo not drawn) | – | Tmax [30]: 0.438 h; Cmax [31]: 6590 ng/mL; CL/F [32]: 3.25 mL/min/kg; AUC [33]: 12846.927 ng·h/mL; t1/2 [34]: 3.09 h; F [35]: 78.5%
